Reference: article PMC8835475, “Salviolone from Salvia miltiorrhiza Roots Impairs Cell Cycle Progression, Colony Formation, and Metalloproteinase-2 Activity in A375 Melanoma Cells: Involvement of P21(Cip1/Waf1) Expression and STAT3 Phosphorylation” (International Journal of Molecular Sciences, 2022)

Columns and labels:
[1] = tested on: pRb; test: Immunoblot of pRb in A375 cells; format: cell-based, human; settings: A375, 20 µM, 48 or 72 h
Description: (§1) A375 cells were seeded in 6 cm Petri dishes (190 300 cell/dish) and treated with different compounds at 10 or 20 μM. After 48- or 72-h treatment, the cells were scraped using warm 1× sample buffer (2% SDS, 10% glycerol, 50 mM Tris-HCl, 1.75% β-mercaptoethanol, and bromophenol blue) and boiled at 99 °C for 10 min. Total protein extracts were kept at −80 °C until use.
(§2) Protein extracts were analyzed with a 7.5 or 10% polyacrylamide SDS-PAGE and transferred to a polyvinylidene difluoride membrane (PVDF, Thermo Fisher Scientific, Waltham, MA, USA). The membranes were blocked at RT for 1 h with TBST buffer (10 mM Tris-HCl pH 7.5, 100 mM NaCl, 0.1% Tween20) containing 4% Milk (Formulat). […] Immuno-detection was carried out with an ECL kit (GE-Healthcare, Little Chalfont, UK), and the chemiluminescence signals were detected with ChemiDoc (Bio-Rad, Hercules, CA, USA).

[2] = tested on: P53; test: Immunoblot of P53 in A375 cells; format: cell-based, human; settings: A375, 20 µM, 48 and 72 h
Description: as §1, §2

[3] = tested on: normal human epithelial melanocyte (NHEM) cell line; test: SRB cell viability assay in NHEM cells; format: cell-based; settings: for effect on NHEM viability: 10–20 µM; for reduction of NHEM viability: 40–60 µM
Description: Human MeWo (HTB-65) and A375 (CRL-1619) melanoma cell lines as well as the normal human epidermal melanocyte (NHEM) (PCS-200-013) cell line (ATCC, Manassas, VA, USA) were cultured at 37 °C under 5% CO2 in a humidified atmosphere. Roswell Park Memorial Institute 1640 medium (RPMI, Gibco, Ref.21875, Thermo Scientific, Waltham, MA, USA) was used to culture MeWo cells, while Dulbecco’s Modified Eagle Medium (DMEM, Gibco, Ref. 61965, Thermo Scientific, Waltham, MA, USA) was used for A375 and NHEM cell lines. The culture media were supplemented with 10% fetal bovine serum (FBS, Gibco, Thermo Scientific, Waltham, MA, USA) plus 1% Antibiotic Antimycotic Solution (Gibco, Thermo Scientific). The MEK1 inhibitor U0126 (CAY-70970) and the PI3K inhibitor LY294002 (CAY-70920) were provided by Cayman Chemical, Ann Arbor, MI, USA.
Melanoma MeWo and A375 cells or NHEM were seeded in 96-well plates (5.0 × 10^3 cells/well for MeWo cells and 2.9 × 10^3 cells/well for A375 or NHEM). After 24-h culture, the cells were treated with different concentrations of compounds 1–7. After 72-h treatment, the cells were fixed by adding 25 µL/well of 50% (w/v) TCA directly into the culture medium. The plates were incubated at 4 °C for 1 h, washed four times with ddH2O, and dried at RT. Staining was performed by adding 50 µL/well of 0.04% (w/v) sulforhodamine B (SRB) sodium salt solution (Sigma-Aldrich, Milan, Italy). After 1-h incubation at RT, the plates were rinsed with 1% HAc and air-dried. SRB was solubilized in a 10 mM Tris-base solution pH 10.5 and Abs492 measured in the plate reader TECAN NanoQuant Infinite M200 Pro (Tecan Group Ltd., Männedorf, Switzerland). Six replicates for each condition/data point were performed.

[4] = tested on: pCdk2; test: Immunoblot of pCdk2 in A375 cells; format: cell-based, human; settings: A375, 20 µM, 48 or 72 h
Description: as §1, §2

[5] = tested on: Tyr705-STAT3 phosphorylation; test: Immunoblot of p-Tyr705-STAT3 in A375 cells; format: cell-based, human; settings: A375, 20 µM; for STAT3 activity (tyrosine and serine phosphorylation): 48 h; for Tyr705-STAT3 phosphorylation: 72 h, vs untreated cells
Description: as §1
Protein extracts were analyzed with a 7.5 or 10% polyacrylamide SDS-PAGE and transferred to a polyvinylidene difluoride membrane (PVDF, Thermo Fisher Scientific, Waltham, MA, USA). The membranes were blocked at RT for 1 h with TBST buffer (10 mM Tris-HCl pH 7.5, 100 mM NaCl, 0.1% Tween20) containing 4% Milk (Formulat). Then, they were incubated on a shaker, overnight (ON) at 4 °C, with 5% BSA solution containing primary antibodies against p-Tyr705-STAT3 (#9145, 1:1000), pRb (#8516, 1:2000), pERK (#4370, 1:1000), pAkt (#4060, 1:2000), pSer15-P53 (#9286, 1:2000) (Cell Signaling Technology, Danvers, […], USA), Akt (GTX121937, 1:3000), ERK (GTX134452, 1:6000), Cyclin A2 (GTX-103042, 1:3000), p-Thr160Cdk2 (GTX-133862, 1:3000), p21 (GTX-629543, 1:3000) (Genetex, Alton Pkwj Irvine, CA, USA), p53 (Sc-263, 1:1000), STAT3 (Sc-482, 1:1000), and p-Ser727-STAT3 (Sc-136193, 1:1000) (Santa Cruz Biotechnology, Dallas, TX, USA). The membranes were washed three times with TBST buffer for 30 min and then incubated for 1 h with a horseradish-peroxidase-conjugated secondary antibody (anti-rabbit 1:6000, Genetex), (anti-mouse, 1:4000, Cell Signaling Technology, Danvers, […], USA). They were washed another three times for 30 min with TBST buffer. All protein extracts were normalized with a β-actin protein antibody (GTX-124214, 1:10,000; Genetex, Alton Pkwj Irvine, CA, USA). Immuno-detection was carried out with an ECL kit (GE-Healthcare, Little Chalfont, UK), and the chemiluminescence signals were detected with ChemiDoc (Bio-Rad, Hercules, CA, USA).

[6] = tested on: cyclin A2; test: Immunoblot of cyclin A2 in A375 cells; format: cell-based, human; settings: A375, 20 µM, 48 or 72 h
Description: as §1, §2

[7] = tested on: MMP2 gelatinase activity; test: Gelatin zymography of MMP2 activity in A375 cells; format: cell-based, human; settings: A375, 10 and 20 µM, gel zymography
Description: A gel zymography assay can measure the ability of matrix metalloproteinases (MMPs) to digest their substrate gelatin present in the gel. Thus, the zymographic approach allows sensitive and quantifiable analysis of the activity of MMPs that can be recognized by their molecular weight. […] Both compounds 7 and 4 at 10 and 20 µM inhibited MMP2 gelatinase activity in the A375 melanoma cell line (Figure 6B).
A375 cells were cultured in the presence of 10 or 20 µM cryptotanshinone (4), salviolone (7), or 1 µM onconase (provided by Prof. G. Gotte), as a positive control, for 48 h and then they were serum starved for 24 h. The conditioned medium was collected and 10× concentrated with an Amicon Ultra-2 Centrifugal filter unit (Merck-Millipore, Milan, Italy). Protein concentrations were determined with Coomassie (Thermo Fisher Scientific, Waltham, MA, USA) and samples treated with a non-reducing sample buffer. To separate proteins, a 7.5% SDS-PAGE was performed. The gel contained 4 mg/mL of gelatin (Sigma-Aldrich, Milan, Italy) and was washed with 50 mM Tris-HCl pH 7.5, 5 mM CaCl2, and 1 μM ZnCl2 supplemented with 2.5% Triton X-100 (Serva Electrophoresis, Heidelberg, Germany). […] The gel was stained with 0.5% Coomassie Brilliant Blue R-250 in 20% ethanol/10% acetic acid, and the gelatinase activity was detected by evaluating the presence and intensity of clear bands on the blue background.

[8] = tested on: P21(Cip1/Waf1); test: Immunoblot of P21 in A375 cells; format: cell-based, human; settings: A375, 20 µM, 48 and 72 h
Description: as §1, §2

SMILES	phosphorylation of Rb (pRb) expression level [1]	P53 protein expression [2]	effect on NHEM viability [3]	reduction of NHEM viability [3] [%]	pCdk2 (active form of Cdk2) expression level [4]	STAT3 activity (tyrosine and serine phosphorylation) [5]	Tyr705-STAT3 phosphorylation [5]	cyclin A2 expression level [6]	MMP2 gelatinase activity [7]	P21 expression level [8]
C[C@H]1COC2=C1C(=O)C(=O)c1c2ccc2c1CCCC2(C)C [Compound 4, cryptotanshinone]	slightly reduced	significant increase	did not affect	20	slightly reduced	did not significantly change	significant reduction	slightly reduced	inhibited	significantly increased
Cc1cc2ccc3c(c2cc(O)c1=O)CCCC3(C)C [Compound 7, salviolone]	strongly reduced	significant increase	did not affect	20	strongly reduced	did not significantly change	significant reduction	strongly reduced	inhibited	strongly increased
